Reference: US20070213339A1 (Bayer Pharmaceuticals Corporation, priority 2004, published 2007)

The compounds below were run on Colo205 human colon carcinoma cell line (assay: In vitro tumor cell proliferation assay (MTS, CellTiter 96 Aqueous One Solution)). Details: COLO 205, Colo205 cells, 72 hours compound exposure, MTS absorbance at 490 nm, read-out: IC50 (concentration of test compound required to inhibit proliferation of 50% of the cells).
Type: cell-based
Description: In Vitro Tumor Cell Proliferation Assay
The adherent H460 human non-small cell lung carcinoma and Colo205 human colon carcinoma cell lines were purchased from the American Type and Culture Collection (ATCC, Manassas, Va.) and maintained in RPMI-1640 growth media supplemented with 10% heat inactivated fetal bovine serum (Gibco, Invitrogen Corp. Grand Island, N.Y.). At 37° C. in a humidified atmosphere of 5% CO2.
The CellTiter 960 Aqueous One Solution kit, MTS, (Promega, Madison, Wis.) was used to measure proliferation of tumor cell lines in vitro. This method monitors the bioreduction of a tetrazolium dye as a measure of cell viability. On Day 0, exponentially growing cells were trypsinized, resuspended in RPMI-1640 growth media supplemented with 10% FCS, 100 u/ml of penicillin G and 100 ug/ml of streptomycin sulfate, and seeded at 2000 cells per well into 96 well microtiter plates. Cells were incubated overnight in a humidified atmosphere of 5% CO2 at 37° C. On Day 1, serial dilutions of compounds were prepared at 2× the finial assay concentration. One hundred microliters of 2× solution was added to test wells in duplicate and control wells received no test compound. The final drug concentration ranged from 0 to 10-20 um in a 5 point dose-response curve. Cells were incubated in the presence of test compounds in a humidified atmosphere of 5% CO2 at 37° C. for 72 hours. After 72 hours of compound exposure, 40 ul of Promega CellTiter 960 Aqueous One Solution was added to each well and absorbance at 490 n-M was measured using a multi-well plate reader. Percent inhibition of proliferation was calculated using the following formula: 100×(1−Absorbancetreated−Background/(Absorbancecontrol−Background)
Absorbancetreated=absorbance at 490 nm in test wells, cells with test compound
Absorbancecontrol=absorbance at 490 nm in control wells, cells with no test compound
Background=absorbance 490 nm in wells containing media and no cells
The concentration of test compound required to inhibit proliferation of 50% of the cells (IC50) was determined by linear regression analysis.
Representative compounds of the invention were tested in the above-described Colo205 human colon carcinoma cell line in vitro assay and found to inhibit human colon carcinoma cell proliferation, and are summarized as follows: […]

Compound	IC50 [nM]
O=C(O)c1cn(-c2cccc(CN3CCCCC3)c2)c2c(Cl)c(N3CCN(c4ccc(F)cc4)CC3)c(F)cc2c1=O [Example 67, 8-chloro-6-fluoro-7-[4-(4-fluorophenyl)-piperazin-1-yl]-4-oxo-1-[3-(piperidin-1-ylmethyl)phenyl]-1,4-dihydroquinoline-3-carboxylic acid]	2000 to 20000
NC(=O)c1ccccc1N1CCN(c2c(F)cc3c(=O)c(C(=O)O)cn(-c4ccc(CN5CCCC5)cc4)c3c2Cl)CC1 [Example 10, 7-{4-[2-(aminocarbonyl)phenyl]piperazin-1-yl}-8-chloro-6-fluoro-4-oxo-1-[4-(pyrrolidin-1-ylmethyl)phenyl]-1,4-dihydroquinoline-3-carboxylic acid]	2000 to 20000
CON(C)Cc1ccc(-n2cc(C(=O)O)c(=O)c3cc(F)c(N4CCN(c5ncccc5C#N)CC4)c(Cl)c32)cc1 [Example 54, 8-chloro-7-[4-(3-cyanopyridin-2-yl)piperazin-1-yl]-6-fluoro-1-(4-{[methoxy(methyl)amino]methyl}phenyl)-4-oxo-1,4-dihydroquinoline-3-carboxylic acid]	2000 to 20000
N#Cc1ccc(N2CCN(c3c(F)cc4c(=O)c(C(=O)O)cn(-c5ccc(CN6CCCC6)cc5F)c4c3Cl)CC2)nc1 [Example 47, 8-chloro-7-[4-(5-cyanopyridin-2-yl)piperazin-1-yl]-6-fluoro-1-[2-fluoro-4-(pyrrolidin-1-ylmethyl)phenyl]-4-oxo-1,4-dihydroquinoline-3-carboxylic acid]	500 to 2000
COc1ccccc1N1CCN(c2c(F)cc3c(=O)c(C(=O)O)cn(-c4ccc(CN(C)C)cc4)c3c2OC)CC1 [Example 99, 1-{4-[(dimethylamino)methyl]phenyl}-6-fluoro-8-methoxy-7-[4-(2-methoxyphenyl)piperazin-1-yl]-4-oxo-1,4-dihydroquinoline-3-carboxylic acid]	500 to 2000
COc1c(N2CCN(c3ccc(Cl)cc3)CC2)c(F)cc2c(=O)c(C(=O)O)cn(-c3ccc(CN4CCCC4)cc3)c12 [Example 80, 7-[4-(4-chlorophenyl)piperazin-1-yl]-6-fluoro-8-methoxy-4-oxo-1-[4-(pyrrolidin-1-ylmethyl)phenyl]-1,4-dihydroquinoline-3-carboxylic acid]	500 to 2000
COC[C@H]1CCCN1Cc1ccc(-n2cc(C(=O)O)c(=O)c3cc(F)c(N4CCN(c5ncccn5)CC4)c(Cl)c32)cc1 [Example 22, 8-chloro-6-fluoro-1-(4-{[(2R)-2-(methoxy-methyl)pyrrolidin-1-yl]methyl}phenyl)-4-oxo-7-(4-pyrimidin-2-ylpiperazin-1-yl)-1,4-dihydroquinoline-3-carboxylic acid]	500 to 2000
COc1c(N2CCN(c3ccccc3F)CC2)c(F)cc2c(=O)c(C(=O)O)cn(-c3ccc(CN(C)C)cc3)c12 [Example 94, 1-{4-[(dimethylamino)methyl]phenyl}-6-fluoro-7-[4-(2-fluorophenyl)piperazin-1-yl]-8-methoxy-4-oxo-1,4-dihydroquinoline-3-carboxylic acid]	500 to 2000
O=C(O)c1cn(-c2cccc(CN3CCCCC3)c2)c2c(OC(F)(F)F)c(N3CCN(c4cccc(Cl)c4)CC3)c(F)cc2c1=O [Example 145, 7-[4-(3-chlorophenyl)piperazin-1-yl]-6-fluoro-4-oxo-1-[3-(piperidin-1-ylmethyl)phenyl]-8-(trifluoromethoxy)-1,4-dihydroquinoline-3-carboxylic acid]	500 to 2000
Cc1ccccc1N1CCN(c2c(F)cc3c(=O)c(C(=O)O)cn(-c4ccc(CN5CCCC5)cc4)c3c2Cl)CC1 [Example 11, 8-chloro-6-fluoro-7-[4-(2-methylphenyl)-piperazin-1-yl]-4-oxo-1-[4-(pyrrolidin-1-ylmethyl)phenyl]-1,4-dihydroquinoline-3-carboxylic acid]	500 to 2000

Further lines, results first:

IC50 [nM]	Compound
500 to 2000	N#Cc1ccccc1N1CCN(c2c(F)cc3c(=O)c(C(=O)O)cn(-c4ccc(CN5CCCC5)nc4)c3c2Cl)CC1 [Example 36, 8-chloro-7-[4-(2-cyanophenyl)piperazin-1-yl]-6-fluoro-4-oxo-1-[6-(pyrrolidin-1-ylmethyl)pyridin-3-yl]-1,4-dihydroquinoline-3-carboxylic acid]
< 500	COc1c(N2CCN(c3ncccn3)CC2)c(F)cc2c(=O)c(C(=O)O)cn(-c3ccc(CN(C)C)cc3)c12 [Example 96, 1-{4-[(dimethylamino)methyl]phenyl}-6-fluoro-8-methoxy-4-oxo-7-(4-pyrimidin-2-ylpiperazin-1-yl)-1,4-dihydroquinoline-3-carboxylic acid]
< 500	CCN(CC)Cc1ccc(-n2cc(C(=O)O)c(=O)c3cc(F)c(N4CCN(c5ccccn5)CC4)c(OC(F)(F)Cl)c32)cc1 [Example 159, 8-[chloro(difluoro)methoxy]-1-{4-[(diethylamino)methyl]phenyl}-6-fluoro-4-oxo-7-(4-pyridin-2-ylpiperazin-1-yl)-1,4-dihydroquinoline-3-carboxylic acid]
500 to 2000	COc1c(N2CCN(c3ccc([N+](=O)[O-])cc3F)CC2)c(F)cc2c(=O)c(C(=O)O)cn(-c3ccc(CN4CCCC4)cc3)c12 [Example 87, 6-fluoro-7-[4-(2-fluoro-4-nitrophenyl)piperazin-1-yl]-8-methoxy-4-oxo-1-[4-(pyrrolidin-1-ylmethyl)phenyl]-1,4-dihydroquinoline-3-carboxylic acid]
< 500	O=C(O)c1cn(-c2ccc(CN3CCCC3)cc2F)c2c(Cl)c(N3CCN(c4ccc(F)cc4)CC3)c(F)cc2c1=O [Example 41, 8-chloro-6-fluoro-7-[4-(4-fluorophenyl)-piperazin-1-yl]-1-[2-fluoro-4-(pyrrolidin-1-ylmethyl)phenyl]-4-oxo-1,4-dihydroquinoline-3-carboxylic acid]
< 500	O=C(O)c1cn(-c2ccc(CNC3CCCC3)cc2)c2c(OC(F)(F)Cl)c(N3CCN(c4ccc(F)cc4)CC3)c(F)cc2c1=O [Example 181, 8-(chloro-difluoromethoxy)-1-(4-cyclopentylaminomethyl-phenyl)-6-fluoro-4-oxo-7-[4(4-fluorophenyl)piperazine-1-yl]-1,4-dihydroquinoline-3-carboxylic acid]
500 to 2000	CCOc1ccccc1N1CCN(c2c(F)cc3c(=O)c(C(=O)O)cn(-c4ccc(CN5CCCC5)cc4)c3c2Cl)CC1 [Example 16, 8-chloro-7-[4-(2-ethoxyphenyl)piperazin-1-yl]-6-fluoro-4-oxo-1-[4-(pyrrolidin-1-ylmethyl)phenyl]-1,4-dihydroquinoline-3-carboxylic acid]
< 500	COC[C@H]1CCCN1Cc1ccc(-n2cc(C(=O)O)c(=O)c3cc(F)c(N4CCN(c5ccccn5)CC4)c(Cl)c32)cc1 [Example 21, 8-chloro-6-fluoro-1-(4-{[(2R)-2-(methoxy-methyl)pyrrolidin-1-yl]methyl}phenyl)-4-oxo-7-(4-pyridin-2-ylpiperazin-1-yl)-1,4-dihydroquinoline-3-carboxylic acid]
< 500	N#Cc1ccccc1N1CCN(c2c(F)cc3c(=O)c(C(=O)O)cn(-c4ccc(CN5CC[C@@H](O)C5)cc4)c3c2Cl)CC1 [Example 32, 8-chloro-7-[4-(2-cyanophenyl)piperazin-1-yl]-6-fluoro-1-(4-{[(3R)-3-hydroxypyrrolidin-1-yl]methyl}phenyl)-4-oxo-1,4-dihydroquinoline-3-carboxylic acid]
< 500	CN(C)CCc1ccc(-n2cc(C(=O)O)c(=O)c3cc(F)c(N4CCN(c5ccccn5)CC4)c(Cl)c32)cc1 [Example 69, 8-chloro-1-{4-[2-(dimethylamino)ethyl]phenyl}-6-fluoro-4-oxo-7-(4-pyridin-2-ylpiperazin-1-yl)-1,4-dihydroquinoline-3-carboxylic acid]
< 500	N#Cc1ccccc1N1CCN(c2c(F)cc3c(=O)c(C(=O)O)cn(-c4ccc(CN5CCCC5)cc4)c3c2Cl)CC1 [Example 4, 8-chloro-6-fluoro-7-[4-(2-cyanophenyl)-piperazin-1-yl]-4-oxo-1-[4-(pyrrolidin-1-ylmethyl)phenyl]1,4-dihydroquinoline-3-carboxylic acid]
< 500	N#Cc1cccnc1N1CCN(c2c(F)cc3c(=O)c(C(=O)O)cn(-c4ccc(CN5CCCC5)cc4)c3c2OC(F)(F)F)CC1 [Example 125, 7-[4-(3-cyanopyridin-2-yl)piperazin-1-yl]-6-fluoro-4-oxo-1-[4-(pyrrolidin-1-ylmethyl)phenyl]-8-(trifluoromethoxy)-1,4-dihydroquinoline-3-carboxylic acid]
< 500	O=C(O)c1cn(-c2ccc(CN3CCCC3)cc2F)c2c(Cl)c(N3CCN(c4ccccc4)CC3)c(F)cc2c1=O [Example 43, 8-chloro-6-fluoro-1-[2-fluoro-4-(pyrrolidin-1-ylmethyl)phenyl]-4-oxo-7-(4-phenylpiperazin-1-yl)-1,4-dihydroquinoline-3-carboxylic acid]
